Test results: patent publication US20160229835A1, “NOVEL PYRIDYLOXYACETYL TETRAHYDROISOQUINOLINE COMPOUNDS USEFUL AS NAMPT INHIBITORS” (ELI LILLY AND COMPANY, priority 2013, published 2016)

What was measured:
[1] = test system: Calu-6 (lung cancer) cells; assay: Cell Viability Assay, Calu-6; format: cell-based; settings: Homo sapiens, 72 hours
Method: The purpose of this assay is to measure the ability of a compound to reduce viability of different cancer cells dependent on the NAMPT-mediated NAD^+ formation in vitro. HCC1937 (breast cancer) cells are cultured in RPMI-1640 supplemented with 10% FBS. Calu-6 (lung cancer) cells and MCF-7 (breast cancer) cells are cultured in Minimum Essential Medium (MEM) (Gibco11095) supplemented with 1 mM sodium pyruvate (Gibco 11360), 1% Non-Essential Amino Acids Solution (100×; Gibco 11140) and 10% FBS. NCI-H1155 (lung cancer) cells are cultured in Dulbecco's Modified Eagle Medium (DMEM) (Gibco 11965) with 10% FBS. […] Cell viability is analyzed by using an assay kit (CYTOTOX-GLO™ Cytotoxicity Assay kit, Promega) according to the manufacturer's instructions as follows. […] Luminescence is measured using a Wallac Victor3 V 1420 Multilabel Counter (Perkin Elmer), referred to as dead cell luminescence. […] After the plate is incubated at room temperature for 15 minutes, luminescence is measured using the plate reader, referred to as total luminescence. Viable cell luminescence (CPS) is calculated by subtracting the dead cell luminescence from the total luminescence Inhibition of cell viability is calculated based on the equation as follows:
Inhibition (%)=(CPSnegative−CPSsample)/(CPSnegative−CPSpositive)*100 where CPS is the luminescence of viable cells.

A2780 Tumor Xenografts = assay: LC-MS Analysis of NAD+ in A2780 Tumor Xenografts; format: in vivo, mice; settings: oral gavage
Method: The purpose of this assay is to measure effects of NAMPT inhibitors on NAD^+ formation in cancer cells. LC-MS analysis of NAD^+ metabolites: nicotinamide mononucleotide (NMN), NAD^+, reduced nicotinamide adenine dinucleotide (NADH), and nicotinamide adenine dinucleotide phosphate (NADP) is performed on an HPLC system coupled to a Thermo Quantum Ultra triple quadrupole mass spectrometer operated in positive heated electrospray mode with selected reaction monitoring detection. For cell extracts, 50 μL of extract and 10 μL of 10 μM internal standard (IS) solution is transferred to a 96-well plate, dried under nitrogen and reconstituted in 50 μL of water. For tissue extracts, 20 μL of extract and 10 μL of IS solution are dried and reconstituted in 50 μL water. The IS solution contains 10 μM nicotinamide-d4 (C/D/N Isotopes), nicotinic acid-d4 (C/D/N Isotopes), nicotinamide mononucleotide-d4 (prepared by custom synthesis) and nicotinamide 1,N^6-ethenoadenine dinucleotide in methanol. The metabolites are separated on a Waters XBRIDGE™ Amide (2.1×50 mm, 3 μm) with an injection volume of 10 μL and a flow rate of 1 mL/minute using 10 mM ammonium acetate in 95% acetonitrile for mobile phase A and 10 mM ammonium acetate in 50% acetonitrile for mobile phase B. The gradient is as follows: 0 minutes, 0% B; 2.5 minutes, 70% B; 2.51 minutes, 100% B; 2.8 minutes, 100% B; 2.81 minutes, 0% B, 3.6 minutes, 0% B.
The purpose of this assay is to measure the effects of NAMPT inhibitors on NAD^+ levels in vivo as described above. Tumors are grown and treated as described below for efficacy in xenograft tumor models below (7 animals/group). Each compound is also formulated as described for efficacy in xenograft tumor models below. Vehicle is 20% of CAPTISOL® and 25 mM of phosphate buffer, pH 2 without compound. After the completion of the treatment, tumor tissues (˜50 mg each) are homogenized in an ice cold extraction buffer (1 mL of 70% methanol/water; HPLC grade for 2 minutes in a tissue lyser II (QIAGEN™) at frequency 30 Hz. The resulting preparations are centrifuged at 14000×g for 6 minutes. The supernatant fractions (500 μL each) are collected and extracted with chloroform (0.5 mL). The aqueous fractions (0.3 mL each) are collected into a 96-well plate ready for LC-MS analysis. The LC-MS analysis of NAD metabolites is performed as described above.
The purpose of this assay is to measure reduction in tumor volume in response to test compound administration. A2780 and NCI-H1155 (NSCLC) cells are grown as described above for IVTI studies. Cells are harvested and injected subcutaneously onto the rear flank of nude mice. When tumors are established (7-21 days after implant), animals are randomized and grouped into control and test groups (7 animals/group). The test compound is formulated in 20% of CAPTISOL® and 25 mM of phosphate buffer, pH 2. Test compound and vehicle (20% of CAPTISOL® and 25 mM of phosphate buffer, pH 2 without compound) are administered by oral gavage. Tumor response is determined by tumor volume measurement (caliper) performed twice a week during the course of treatment and reported as percent of tumor volume of each treatment group divided by tumor volume of the vehicle control group. […]

SMILES | IC50 [1] [nM] | NAD levels (pmol/mg tissue) (A2780 Tumor Xenografts; 5 mg/kg (BID)) | NAD levels (pmol/mg tissue) (A2780 Tumor Xenografts; 10 mg/kg (BID)) | NAD levels (pmol/mg tissue) (A2780 Tumor Xenografts; 20 mg/kg (BID)) | NAD levels (pmol/mg tissue) (A2780 Tumor Xenografts; 8 mg/kg (BID)) | NAD levels (pmol/mg tissue) (A2780 Tumor Xenografts; 16 mg/kg (BID)) | NAD levels (pmol/mg tissue) (A2780 Tumor Xenografts; 32 mg/kg (BID))
CC(C)(O)CS(=O)(=O)Nc1ccc2c(c1)CCN(C(=O)COc1cccnc1)C2 [Example 1, 2-Hydroxy-2-methyl-N-[2-[2-(3-pyridyloxy)acetyl]-3,4-dihydro-1H-isoquinolin-6-yl]propane-1-sulfonamide] | 49 ± 8 | 5.04 | 2.55 | 3.29 |  |  | 
COCCS(=O)(=O)Nc1ccc2c(c1)CCN(C(=O)COc1cccnc1)C2 [Example 2, 2-Methoxy-N-[2-[2-(3-pyridyloxy)acetyl]-3,4-dihydro-1H-isoquinolin-6-yl]ethanesulfonamide] | 121 ± 29 |  |  |  | 3.97 | 6.52 | 6.38
